What follows are molecules tested against BTK (human) (UniProt Q06187) (assay: KINOMEscan competition binding). Conditions: compound 10.0 µM.
BTK (human), sequence (Q06187 whole entry, looked up): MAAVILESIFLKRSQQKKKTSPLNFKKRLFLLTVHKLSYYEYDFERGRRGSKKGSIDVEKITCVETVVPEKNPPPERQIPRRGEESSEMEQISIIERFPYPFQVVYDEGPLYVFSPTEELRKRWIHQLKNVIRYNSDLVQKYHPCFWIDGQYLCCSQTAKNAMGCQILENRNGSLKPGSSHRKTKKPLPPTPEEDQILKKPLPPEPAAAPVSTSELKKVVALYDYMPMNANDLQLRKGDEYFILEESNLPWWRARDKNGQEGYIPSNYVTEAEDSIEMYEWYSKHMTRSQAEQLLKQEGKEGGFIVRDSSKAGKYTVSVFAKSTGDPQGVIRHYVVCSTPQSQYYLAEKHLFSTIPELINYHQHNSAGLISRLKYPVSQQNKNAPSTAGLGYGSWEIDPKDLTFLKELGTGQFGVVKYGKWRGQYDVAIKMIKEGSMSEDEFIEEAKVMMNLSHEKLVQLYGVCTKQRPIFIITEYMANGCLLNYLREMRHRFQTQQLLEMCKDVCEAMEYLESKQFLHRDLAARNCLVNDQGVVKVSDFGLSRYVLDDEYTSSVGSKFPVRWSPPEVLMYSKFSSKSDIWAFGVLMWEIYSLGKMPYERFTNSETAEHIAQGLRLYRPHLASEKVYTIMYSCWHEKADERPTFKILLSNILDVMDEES

SMILES	kinase still bound, per cent of control
CCN1CCN(Cc2ccc(NC(=O)c3ccc(C)c(/C=C/c4cnc(Nc5cc(N6CCNCC6)nc(C)n5)cn4)c3)cc2C(F)(F)F)CC1	0.2%
COc1cc(N2CCC(N3CCN(C)CC3)CC2)ccc1Nc1ncc(Cl)c(Nc2ccccc2S(=O)(=O)C(C)C)n1	0%
CCOc1cc(N2CCC(N3CCCCC3)CC2)ccc1Nc1nc(Nc2ccccc2S(=O)(=O)C(C)C)c2cn[nH]c2n1	32%

The molecules below were run against MAP3K5 (human) (UniProt Q99683) (assay: KINOMEscan competition binding). Conditions: compound 10.0 µM.

SMILES	kinase still bound, per cent of control
CCN1CCN(Cc2ccc(NC(=O)c3ccc(C)c(/C=C/c4cnc(Nc5cc(N6CCNCC6)nc(C)n5)cn4)c3)cc2C(F)(F)F)CC1	100%
COc1cc(N2CCC(N3CCN(C)CC3)CC2)ccc1Nc1ncc(Cl)c(Nc2ccccc2S(=O)(=O)C(C)C)n1	40%
CCOc1cc(N2CCC(N3CCCCC3)CC2)ccc1Nc1nc(Nc2ccccc2S(=O)(=O)C(C)C)c2cn[nH]c2n1	100%

Each molecule was assayed against CDC2L2 (human) (UniProt Q9UQ88) (assay: KINOMEscan competition binding). Conditions: compound 10.0 µM.
CDC2L2 (human), sequence (Q9UQ88 whole entry, looked up): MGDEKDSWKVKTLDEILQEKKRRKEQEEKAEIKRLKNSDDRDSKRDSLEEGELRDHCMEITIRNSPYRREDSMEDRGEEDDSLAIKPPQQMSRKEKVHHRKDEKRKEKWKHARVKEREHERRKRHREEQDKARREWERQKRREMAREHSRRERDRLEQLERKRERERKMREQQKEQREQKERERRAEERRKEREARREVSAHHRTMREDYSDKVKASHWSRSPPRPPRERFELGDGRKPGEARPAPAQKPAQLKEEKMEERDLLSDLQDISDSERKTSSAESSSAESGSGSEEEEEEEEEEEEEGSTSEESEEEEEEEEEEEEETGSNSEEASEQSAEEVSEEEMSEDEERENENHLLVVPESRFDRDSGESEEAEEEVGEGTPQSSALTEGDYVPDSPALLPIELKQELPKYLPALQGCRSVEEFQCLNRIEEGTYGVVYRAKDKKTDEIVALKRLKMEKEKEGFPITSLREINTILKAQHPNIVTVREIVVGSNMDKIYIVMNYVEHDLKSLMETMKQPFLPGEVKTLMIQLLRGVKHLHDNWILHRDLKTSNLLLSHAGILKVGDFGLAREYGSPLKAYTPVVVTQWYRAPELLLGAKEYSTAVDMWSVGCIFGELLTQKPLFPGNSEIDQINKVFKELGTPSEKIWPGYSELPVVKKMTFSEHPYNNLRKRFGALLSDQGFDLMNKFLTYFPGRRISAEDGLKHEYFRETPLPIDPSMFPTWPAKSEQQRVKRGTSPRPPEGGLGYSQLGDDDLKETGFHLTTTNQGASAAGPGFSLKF

SMILES	kinase still bound, per cent of control
CCN1CCN(Cc2ccc(NC(=O)c3ccc(C)c(/C=C/c4cnc(Nc5cc(N6CCNCC6)nc(C)n5)cn4)c3)cc2C(F)(F)F)CC1	69%
CCOc1cc(N2CCC(N3CCCCC3)CC2)ccc1Nc1nc(Nc2ccccc2S(=O)(=O)C(C)C)c2cn[nH]c2n1	100%
CCN1CCN(Cc2ccc(NC(=O)c3ccc(C)c(Oc4ccnc5[nH]ccc45)c3)cc2C(F)(F)F)CC1	0.05%

Each molecule was assayed against MAPK1 (human) (UniProt P28482) (assay: KINOMEscan competition binding). Conditions: not given.
MAPK1 (human), sequence (P28482 whole entry, looked up): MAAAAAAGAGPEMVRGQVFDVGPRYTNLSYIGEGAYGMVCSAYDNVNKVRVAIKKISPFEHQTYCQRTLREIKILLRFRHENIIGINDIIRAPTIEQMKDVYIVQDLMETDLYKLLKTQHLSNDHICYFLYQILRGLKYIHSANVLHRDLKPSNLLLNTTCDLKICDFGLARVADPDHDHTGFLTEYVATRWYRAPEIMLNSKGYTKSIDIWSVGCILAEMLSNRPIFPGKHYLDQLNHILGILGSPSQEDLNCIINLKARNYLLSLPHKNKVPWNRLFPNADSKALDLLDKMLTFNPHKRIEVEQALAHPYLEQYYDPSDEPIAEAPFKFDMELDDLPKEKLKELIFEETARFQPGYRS

SMILES	IC50
CCOc1cc(N2CCC(N3CCCCC3)CC2)ccc1Nc1nc(Nc2ccccc2S(=O)(=O)C(C)C)c2cn[nH]c2n1	6.5 mM

Same assay, conditions: compound 10.0 µM

SMILES	kinase still bound, per cent of control
CCN1CCN(Cc2ccc(NC(=O)c3ccc(C)c(/C=C/c4cnc(Nc5cc(N6CCNCC6)nc(C)n5)cn4)c3)cc2C(F)(F)F)CC1	100%
COc1cc(N2CCC(N3CCN(C)CC3)CC2)ccc1Nc1ncc(Cl)c(Nc2ccccc2S(=O)(=O)C(C)C)n1	0.3%
CCOc1cc(N2CCC(N3CCCCC3)CC2)ccc1Nc1nc(Nc2ccccc2S(=O)(=O)C(C)C)c2cn[nH]c2n1	0.7%

What follows are molecules tested against CSNK1E (human) (UniProt P49674) (assay: KINOMEscan competition binding). Conditions: compound 10.0 µM.
CSNK1E (human), sequence (P49674 whole entry, looked up): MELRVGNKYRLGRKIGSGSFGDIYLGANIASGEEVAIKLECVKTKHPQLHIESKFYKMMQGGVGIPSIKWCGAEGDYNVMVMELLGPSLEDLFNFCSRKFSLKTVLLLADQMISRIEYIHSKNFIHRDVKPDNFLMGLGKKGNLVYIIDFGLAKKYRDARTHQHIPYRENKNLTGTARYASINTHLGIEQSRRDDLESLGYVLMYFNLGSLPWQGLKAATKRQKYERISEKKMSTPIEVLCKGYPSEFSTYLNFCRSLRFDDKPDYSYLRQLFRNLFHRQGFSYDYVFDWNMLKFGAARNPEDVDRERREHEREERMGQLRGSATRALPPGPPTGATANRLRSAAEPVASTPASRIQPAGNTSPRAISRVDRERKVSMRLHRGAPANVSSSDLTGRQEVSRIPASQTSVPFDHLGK

SMILES	kinase still bound, per cent of control
CCN1CCN(Cc2ccc(NC(=O)c3ccc(C)c(/C=C/c4cnc(Nc5cc(N6CCNCC6)nc(C)n5)cn4)c3)cc2C(F)(F)F)CC1	100%
COc1cc(N2CCC(N3CCN(C)CC3)CC2)ccc1Nc1ncc(Cl)c(Nc2ccccc2S(=O)(=O)C(C)C)n1	40%
CCOc1cc(N2CCC(N3CCCCC3)CC2)ccc1Nc1nc(Nc2ccccc2S(=O)(=O)C(C)C)c2cn[nH]c2n1	74%

What follows are molecules tested against FYN (human) (UniProt P06241) (assay: KINOMEscan competition binding). Conditions: compound 10.0 µM.
FYN (human), sequence (P06241 whole entry, looked up): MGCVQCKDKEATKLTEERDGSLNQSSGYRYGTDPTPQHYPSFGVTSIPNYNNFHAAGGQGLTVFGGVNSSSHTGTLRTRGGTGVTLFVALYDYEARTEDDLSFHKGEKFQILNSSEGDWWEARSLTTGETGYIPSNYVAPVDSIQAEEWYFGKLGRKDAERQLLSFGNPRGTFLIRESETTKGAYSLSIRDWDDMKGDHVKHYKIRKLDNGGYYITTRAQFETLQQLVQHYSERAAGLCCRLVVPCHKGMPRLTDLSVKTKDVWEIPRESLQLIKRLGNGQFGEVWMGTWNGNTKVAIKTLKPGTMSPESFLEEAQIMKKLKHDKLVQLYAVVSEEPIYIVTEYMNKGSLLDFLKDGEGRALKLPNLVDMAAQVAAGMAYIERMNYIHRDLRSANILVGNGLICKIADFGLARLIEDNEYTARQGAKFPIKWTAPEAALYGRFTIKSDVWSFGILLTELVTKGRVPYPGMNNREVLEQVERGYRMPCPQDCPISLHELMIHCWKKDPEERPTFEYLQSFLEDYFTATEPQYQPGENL

SMILES	kinase still bound, per cent of control
CCN1CCN(Cc2ccc(NC(=O)c3ccc(C)c(/C=C/c4cnc(Nc5cc(N6CCNCC6)nc(C)n5)cn4)c3)cc2C(F)(F)F)CC1	4.6%
COc1cc(N2CCC(N3CCN(C)CC3)CC2)ccc1Nc1ncc(Cl)c(Nc2ccccc2S(=O)(=O)C(C)C)n1	5.6%
CCOc1cc(N2CCC(N3CCCCC3)CC2)ccc1Nc1nc(Nc2ccccc2S(=O)(=O)C(C)C)c2cn[nH]c2n1	100%
CCN1CCN(Cc2ccc(NC(=O)c3ccc(C)c(Oc4ccnc5[nH]ccc45)c3)cc2C(F)(F)F)CC1	1.6%

The molecules below were run against CDC42BPA (human) (UniProt Q5VT25) (assay: KINOMEscan competition binding). Conditions: compound 10.0 µM.
CDC42BPA (human), sequence (Q5VT25 whole entry, looked up): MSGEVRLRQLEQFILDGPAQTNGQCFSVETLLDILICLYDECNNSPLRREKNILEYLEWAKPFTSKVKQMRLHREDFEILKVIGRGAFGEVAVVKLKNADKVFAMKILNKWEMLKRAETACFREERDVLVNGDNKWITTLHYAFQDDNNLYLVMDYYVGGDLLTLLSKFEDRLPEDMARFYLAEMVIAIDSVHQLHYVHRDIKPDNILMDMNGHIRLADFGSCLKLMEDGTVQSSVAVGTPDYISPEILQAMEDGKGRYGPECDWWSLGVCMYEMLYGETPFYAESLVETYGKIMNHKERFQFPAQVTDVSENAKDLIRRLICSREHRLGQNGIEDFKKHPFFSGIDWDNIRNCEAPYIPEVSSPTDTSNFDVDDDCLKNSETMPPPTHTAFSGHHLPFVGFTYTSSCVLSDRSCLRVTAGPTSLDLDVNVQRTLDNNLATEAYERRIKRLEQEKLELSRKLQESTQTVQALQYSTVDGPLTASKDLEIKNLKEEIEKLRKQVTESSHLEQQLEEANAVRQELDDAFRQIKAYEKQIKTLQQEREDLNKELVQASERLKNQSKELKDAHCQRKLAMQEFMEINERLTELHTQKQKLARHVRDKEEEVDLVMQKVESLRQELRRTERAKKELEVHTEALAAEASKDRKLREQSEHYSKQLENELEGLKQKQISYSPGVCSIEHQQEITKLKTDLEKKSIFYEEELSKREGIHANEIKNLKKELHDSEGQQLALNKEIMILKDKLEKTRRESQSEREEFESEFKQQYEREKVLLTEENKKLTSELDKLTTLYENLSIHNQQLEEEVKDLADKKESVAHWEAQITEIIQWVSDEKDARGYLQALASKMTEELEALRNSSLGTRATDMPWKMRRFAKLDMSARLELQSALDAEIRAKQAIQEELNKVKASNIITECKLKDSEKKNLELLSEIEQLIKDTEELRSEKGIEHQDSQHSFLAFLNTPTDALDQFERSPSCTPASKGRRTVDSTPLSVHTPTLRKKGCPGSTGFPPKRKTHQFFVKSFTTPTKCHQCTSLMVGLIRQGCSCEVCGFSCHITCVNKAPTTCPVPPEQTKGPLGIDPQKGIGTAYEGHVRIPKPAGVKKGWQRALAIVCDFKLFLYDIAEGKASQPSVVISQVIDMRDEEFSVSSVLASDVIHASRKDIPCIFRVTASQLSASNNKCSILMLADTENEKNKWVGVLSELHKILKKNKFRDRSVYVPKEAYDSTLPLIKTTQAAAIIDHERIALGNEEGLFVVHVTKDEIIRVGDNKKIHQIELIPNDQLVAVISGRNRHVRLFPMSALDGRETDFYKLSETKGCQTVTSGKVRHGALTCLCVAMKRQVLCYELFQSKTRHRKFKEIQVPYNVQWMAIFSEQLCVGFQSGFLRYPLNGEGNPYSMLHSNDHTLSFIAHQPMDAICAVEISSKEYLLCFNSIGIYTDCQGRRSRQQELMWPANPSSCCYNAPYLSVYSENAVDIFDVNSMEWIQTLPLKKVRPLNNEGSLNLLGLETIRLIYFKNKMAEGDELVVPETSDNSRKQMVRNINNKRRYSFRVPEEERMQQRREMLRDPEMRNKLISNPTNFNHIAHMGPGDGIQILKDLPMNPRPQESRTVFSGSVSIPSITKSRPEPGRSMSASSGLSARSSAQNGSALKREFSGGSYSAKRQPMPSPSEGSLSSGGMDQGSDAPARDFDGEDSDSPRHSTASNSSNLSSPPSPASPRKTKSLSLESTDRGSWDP

SMILES	kinase still bound, per cent of control
CCN1CCN(Cc2ccc(NC(=O)c3ccc(C)c(/C=C/c4cnc(Nc5cc(N6CCNCC6)nc(C)n5)cn4)c3)cc2C(F)(F)F)CC1	100%
COc1cc(N2CCC(N3CCN(C)CC3)CC2)ccc1Nc1ncc(Cl)c(Nc2ccccc2S(=O)(=O)C(C)C)n1	40%
CCOc1cc(N2CCC(N3CCCCC3)CC2)ccc1Nc1nc(Nc2ccccc2S(=O)(=O)C(C)C)c2cn[nH]c2n1	100%

The molecules below were run against DAPK1 (human) (UniProt P53355) (assay: KINOMEscan competition binding). Conditions: compound 10.0 µM.

SMILES	kinase still bound, per cent of control
CCN1CCN(Cc2ccc(NC(=O)c3ccc(C)c(/C=C/c4cnc(Nc5cc(N6CCNCC6)nc(C)n5)cn4)c3)cc2C(F)(F)F)CC1	85%
COc1cc(N2CCC(N3CCN(C)CC3)CC2)ccc1Nc1ncc(Cl)c(Nc2ccccc2S(=O)(=O)C(C)C)n1	6.4%
CCOc1cc(N2CCC(N3CCCCC3)CC2)ccc1Nc1nc(Nc2ccccc2S(=O)(=O)C(C)C)c2cn[nH]c2n1	60%

What follows are molecules tested against FER (human) (UniProt P16591) (assay: KINOMEscan competition binding). Conditions: compound 10.0 µM.

SMILES	kinase still bound, per cent of control
CCN1CCN(Cc2ccc(NC(=O)c3ccc(C)c(/C=C/c4cnc(Nc5cc(N6CCNCC6)nc(C)n5)cn4)c3)cc2C(F)(F)F)CC1	78%
COc1cc(N2CCC(N3CCN(C)CC3)CC2)ccc1Nc1ncc(Cl)c(Nc2ccccc2S(=O)(=O)C(C)C)n1	0.05%
CCOc1cc(N2CCC(N3CCCCC3)CC2)ccc1Nc1nc(Nc2ccccc2S(=O)(=O)C(C)C)c2cn[nH]c2n1	9.1%
CCN1CCN(Cc2ccc(NC(=O)c3ccc(C)c(Oc4ccnc5[nH]ccc45)c3)cc2C(F)(F)F)CC1	0.5%

These molecules were tested against STK17A (human) (UniProt Q9UEE5) (assay: KINOMEscan competition binding). Conditions: compound 10.0 µM.
STK17A (human), sequence (Q9UEE5 whole entry, looked up): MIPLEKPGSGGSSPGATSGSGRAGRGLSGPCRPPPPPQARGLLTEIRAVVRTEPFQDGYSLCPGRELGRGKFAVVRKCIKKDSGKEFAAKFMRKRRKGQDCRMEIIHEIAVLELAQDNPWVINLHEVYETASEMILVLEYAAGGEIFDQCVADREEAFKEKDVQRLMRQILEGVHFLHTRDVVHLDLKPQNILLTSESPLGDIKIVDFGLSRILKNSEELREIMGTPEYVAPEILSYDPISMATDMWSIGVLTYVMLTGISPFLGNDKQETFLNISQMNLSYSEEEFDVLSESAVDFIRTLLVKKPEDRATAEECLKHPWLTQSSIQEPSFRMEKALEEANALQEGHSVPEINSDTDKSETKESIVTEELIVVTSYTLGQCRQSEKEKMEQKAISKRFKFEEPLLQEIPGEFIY

SMILES	kinase still bound, per cent of control
CCN1CCN(Cc2ccc(NC(=O)c3ccc(C)c(/C=C/c4cnc(Nc5cc(N6CCNCC6)nc(C)n5)cn4)c3)cc2C(F)(F)F)CC1	11%
COc1cc(N2CCC(N3CCN(C)CC3)CC2)ccc1Nc1ncc(Cl)c(Nc2ccccc2S(=O)(=O)C(C)C)n1	5.9%
CCOc1cc(N2CCC(N3CCCCC3)CC2)ccc1Nc1nc(Nc2ccccc2S(=O)(=O)C(C)C)c2cn[nH]c2n1	100%

These molecules were tested against BMPR1A (human) (UniProt P36894) (assay: KINOMEscan competition binding). Conditions: compound 10.0 µM.

SMILES	kinase still bound, per cent of control
CCN1CCN(Cc2ccc(NC(=O)c3ccc(C)c(/C=C/c4cnc(Nc5cc(N6CCNCC6)nc(C)n5)cn4)c3)cc2C(F)(F)F)CC1	100%
